According to ChEMBL document CHEMBL3885881, “DrugMatrix”:

Species on record: Rattus norvegicus
Assay: DrugMatrix - Regimen: Daily Repeat
Assay type: toxicity, organism-based, Sprague-Dawley
Design: regimen Daily Repeat, gender Male, age 6-8 weeks
Settings: in vivo, route none, vehicle 100 % UNTREATED; for BASOPHIL / ERYTHROCYTE COUNT / HEMATOCRIT / HEMOGLOBIN / LEUKOCYTE COUNT / LYMPHOCYTE / MEAN CORPUSCULAR HEMOGLOBIN / MEAN CORPUSCULAR HEMOGLOBIN CONCENTRATION / MONOCYTE / NEUTROPHIL / NUCLEATED RED BLOOD CELLS / PLATELET COUNT / ABSOLUTE BASOPHIL / ABSOLUTE EOSINOPHIL / ABSOLUTE LYMPHOCYTE / ABSOLUTE MONOCYTE / ABSOLUTE SEGMENTED NEUTROPHIL / EOSINOPHIL / MEAN CORPUSCULAR VOLUME: tissue Blood
[1] = 60 mg/kg, 120 h, dose level M1, time 5 day
[2] = 60 mg/kg, 120 h, tissue Plasma, dose level M1, time 5 day
[3] = 60 mg/kg, […], dose level M1, time 14 day
[4] = 60 mg/kg, […], tissue Plasma, dose level M1, time 14 day
[5] = 75 mg/kg, 120 h, dose level High, time 5 day
[6] = 75 mg/kg, 120 h, tissue Plasma, dose level High, time 5 day
[7] = 75 mg/kg, […], dose level High, time 14 day
[8] = 75 mg/kg, […], tissue Plasma, dose level High, time 14 day

Substance: Diet_Restriction
- BASOPHIL [1]: 0%
- ERYTHROCYTE COUNT [1]: 5.22 x10E6/uL
- HEMATOCRIT [1]: 32.2%
- HEMOGLOBIN [1]: 11.93 G/DL
- LEUKOCYTE COUNT [1]: 4.3 x10E3/uL
- LYMPHOCYTE [1]: 87.33%
- MEAN CORPUSCULAR HEMOGLOBIN [1]: 22.9 pg
- MEAN CORPUSCULAR HEMOGLOBIN CONCENTRATION [1]: 37.1 G/DL
- MONOCYTE [1]: 0.67%
- NEUTROPHIL [1]: 10.67%
- NUCLEATED RED BLOOD CELLS [1]: 0 /100WBC
- PLATELET COUNT [1]: 765.33 x10E3/uL
- ALANINE AMINOTRANSFERASE [2]: 32.33 u/L
- ALBUMIN [2]: 4.3 G/DL
- ALKALINE PHOSPHATASE [2]: 267.33 u/L
- ASPARTATE AMINOTRANSFERASE [2]: 64.33 u/L
- BLOOD UREA NITROGEN [2]: 6.33 mg/dL
- CARBON DIOXIDE [2]: 31.33 mmol/L
- CHOLESTEROL [2]: 52 mg/dL
- CREATINE PHOSPHOKINASE [2]: 263 u/L
- CREATININE [2]: 0.14 mg/dL
- GLUCOSE [2]: 137.33 mg/dL
- LACTATE DEHYDROGENASE [2]: 96 u/L
- PHOSPHORUS [2]: 10.27 mg/dL
- POTASSIUM [2]: 5.6 MEQ/L
- TOTAL BILIRUBIN [2]: 0.1 mg/dL
- TOTAL PROTEIN [2]: 5.93 G/DL
- ABSOLUTE BASOPHIL [3]: 0 CELLS/uL
- ABSOLUTE EOSINOPHIL [3]: 64 CELLS/uL
- ABSOLUTE LYMPHOCYTE [3]: 14236 CELLS/uL
- ABSOLUTE MONOCYTE [3]: 39.33 CELLS/uL
- ABSOLUTE SEGMENTED NEUTROPHIL [3]: 894 CELLS/uL
- BASOPHIL [3]: 0%
- EOSINOPHIL [3]: 0.33%
- ERYTHROCYTE COUNT [3]: 6.6 x10E6/uL
- HEMATOCRIT [3]: 37.43%
- LEUKOCYTE COUNT [3]: 15.23 x10E3/uL
- LYMPHOCYTE [3]: 92.67%
- MEAN CORPUSCULAR HEMOGLOBIN [3]: 21.37 pg
- MEAN CORPUSCULAR HEMOGLOBIN CONCENTRATION [3]: 37.67 G/DL
- MEAN CORPUSCULAR VOLUME [3]: 56.73 fL
- MONOCYTE [3]: 0.33%
- NEUTROPHIL [3]: 6.67%
- NUCLEATED RED BLOOD CELLS [3]: 0 /100WBC
- PLATELET COUNT [3]: 800.67 x10E3/uL
- ALANINE AMINOTRANSFERASE [4]: 47 u/L
- ALBUMIN [4]: 4.4 G/DL
- ALKALINE PHOSPHATASE [4]: 256 u/L
- ASPARTATE AMINOTRANSFERASE [4]: 114.33 u/L
- BLOOD UREA NITROGEN [4]: 15 mg/dL
- CARBON DIOXIDE [4]: 25 mmol/L
- CHOLESTEROL [4]: 65 mg/dL
- CREATINE PHOSPHOKINASE [4]: 1426.33 u/L
- CREATININE [4]: 0.23 mg/dL
- GLUCOSE [4]: 165.33 mg/dL
- LACTATE DEHYDROGENASE [4]: 131.33 u/L
- LIPASE [4]: 12 u/L
- PHOSPHORUS [4]: 11.63 mg/dL
- POTASSIUM [4]: 5.69 MEQ/L
- TOTAL BILIRUBIN [4]: 0.17 mg/dL
- TOTAL PROTEIN [4]: 6.17 G/DL
- ABSOLUTE BASOPHIL [5]: 0 CELLS/uL
- ABSOLUTE EOSINOPHIL [5]: 35.33 CELLS/uL
- ABSOLUTE LYMPHOCYTE [5]: 3939.33 CELLS/uL
- ABSOLUTE MONOCYTE [5]: 67.67 CELLS/uL
- ABSOLUTE SEGMENTED NEUTROPHIL [5]: 957.67 CELLS/uL
- BASOPHIL [5]: 0%
- EOSINOPHIL [5]: 0.67%
- ERYTHROCYTE COUNT [5]: 5.54 x10E6/uL
- HEMATOCRIT [5]: 33.63%
- HEMOGLOBIN [5]: 12.8 G/DL
- LEUKOCYTE COUNT [5]: 5 x10E3/uL
- LYMPHOCYTE [5]: 79%
- MEAN CORPUSCULAR HEMOGLOBIN [5]: 23.13 pg
- MEAN CORPUSCULAR HEMOGLOBIN CONCENTRATION [5]: 38.07 G/DL
- NEUTROPHIL [5]: 19%
- NUCLEATED RED BLOOD CELLS [5]: 0 /100WBC
- PLATELET COUNT [5]: 1074.67 x10E3/uL
- ALANINE AMINOTRANSFERASE [6]: 49.33 u/L
- ALBUMIN [6]: 4.3 G/DL
- ALKALINE PHOSPHATASE [6]: 317.33 u/L
- ASPARTATE AMINOTRANSFERASE [6]: 72 u/L
- BLOOD UREA NITROGEN [6]: 9.33 mg/dL
- CARBON DIOXIDE [6]: 35 mmol/L
- CHOLESTEROL [6]: 65.67 mg/dL
- CREATINE PHOSPHOKINASE [6]: 288.33 u/L
- CREATININE [6]: 0.15 mg/dL
- GLUCOSE [6]: 136.33 mg/dL
- LACTATE DEHYDROGENASE [6]: 95.67 u/L
- PHOSPHORUS [6]: 11.33 mg/dL
- POTASSIUM [6]: 6.01 MEQ/L
- SODIUM [6]: 146.17 MEQ/L
- TOTAL BILIRUBIN [6]: 0.1 mg/dL
- TOTAL PROTEIN [6]: 6.23 G/DL
- URIC ACID [6]: 1 mg/dL
- ABSOLUTE BASOPHIL [7]: 0 CELLS/uL
- ABSOLUTE EOSINOPHIL [7]: 0 CELLS/uL
- ABSOLUTE LYMPHOCYTE [7]: 13779.33 CELLS/uL
- ABSOLUTE MONOCYTE [7]: 115 CELLS/uL
- ABSOLUTE SEGMENTED NEUTROPHIL [7]: 2472.33 CELLS/uL
- BASOPHIL [7]: 0%
- EOSINOPHIL [7]: 0%
- ERYTHROCYTE COUNT [7]: 6.39 x10E6/uL
- HEMATOCRIT [7]: 35.97%
- HEMOGLOBIN [7]: 13.47 G/DL
- LEUKOCYTE COUNT [7]: 16.37 x10E3/uL
- LYMPHOCYTE [7]: 84.33%
- MEAN CORPUSCULAR HEMOGLOBIN [7]: 21.13 pg
- MEAN CORPUSCULAR HEMOGLOBIN CONCENTRATION [7]: 37.47 G/DL
- MEAN CORPUSCULAR VOLUME [7]: 56.37 fL
- MONOCYTE [7]: 0.67%
- NEUTROPHIL [7]: 15%
- NUCLEATED RED BLOOD CELLS [7]: 0 /100WBC
- PLATELET COUNT [7]: 941 x10E3/uL
- ALANINE AMINOTRANSFERASE [8]: 51 u/L
- ALKALINE PHOSPHATASE [8]: 319.33 u/L
- ASPARTATE AMINOTRANSFERASE [8]: 77.33 u/L
- BLOOD UREA NITROGEN [8]: 14 mg/dL
- CHLORIDE [8]: 99.67 MEQ/L
- CHOLESTEROL [8]: 64.33 mg/dL
- CREATINE PHOSPHOKINASE [8]: 271.33 u/L
- CREATININE [8]: 0.23 mg/dL
- GLUCOSE [8]: 175 mg/dL
- LACTATE DEHYDROGENASE [8]: 113 u/L
- LIPASE [8]: 20.33 u/L
- PHOSPHORUS [8]: 12.13 mg/dL
- POTASSIUM [8]: 5.75 MEQ/L
- TOTAL BILIRUBIN [8]: 0.13 mg/dL
- TOTAL PROTEIN [8]: 6.1 G/DL
- URIC ACID [8]: 1.3 mg/dL
